In patent US5409950A, “Cyclic ketal derivatives” (Glaxo Group Limited, priority 1991, dated 1995):
pIC50: −log10 of the molar value.

Biological target: T1, squalene synthase (Rattus norvegicus, UniProt Q02769)
T1 construct: incubating rat liver homogenate with various concentrations of the test compound; from tissue; host or cells: rat liver homogenate
T1 sequence (Q02769 1-416): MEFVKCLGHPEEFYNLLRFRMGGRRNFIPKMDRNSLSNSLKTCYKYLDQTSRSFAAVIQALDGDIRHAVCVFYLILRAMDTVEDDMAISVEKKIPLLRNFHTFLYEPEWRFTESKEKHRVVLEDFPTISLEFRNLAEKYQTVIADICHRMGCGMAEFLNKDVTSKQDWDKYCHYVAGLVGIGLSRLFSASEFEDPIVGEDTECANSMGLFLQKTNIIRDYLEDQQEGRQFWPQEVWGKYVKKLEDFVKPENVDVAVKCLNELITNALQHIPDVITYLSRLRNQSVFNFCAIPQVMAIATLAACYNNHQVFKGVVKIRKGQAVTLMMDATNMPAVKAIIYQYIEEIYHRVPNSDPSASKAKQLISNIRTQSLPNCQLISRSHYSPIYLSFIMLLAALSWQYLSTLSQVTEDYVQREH
Assay: Inhibition of squalene synthase in rat liver homogenate
Format: biochemical
Settings: [2-14C] farnesylpyrophosphate as substrate, 30 minute assay, read-out: IC50 (concentration of compound giving 50% inhibition of [14C] squalene production)
Method: Acta, Volume 877, 50-60 (1986) and modified to include measurement of cholesterol by high performance liquid chromatography (h.p.l.c.).
[^14 C] Squalene was separated from unreacted substrate on thin layer chromatography plates and determined by liquid scintillation counting. Inhibition of squalene synthase was quantified by incubating rat liver homogenate with various concentrations of the test compound in the presence of [2-^14 C] farnesylpyrophosphate. The concentration of compound giving 50% inhibition of [^14 C] squalene production in a 30 minute assay was taken as the IC50 value.

## C=C(CC[C@]12O[C@H](C(=O)O)[C@@](O)(C(=O)O)[C@](C(=O)O)(O1)[C@H](OC(=O)/C=C/[C@@H](C)C[C@@H](C)CC)[C@H]2O)C(NC(C)=O)C(C)Cc1ccccc1 (some centres unmarked) [Compound B1]
  pIC50: > 7.00

## C=C(CC[C@]12O[C@H](C(=O)O)[C@@](O)(C(=O)O)[C@](C(=O)O)(O1)[C@H](OC(=O)CC(O)C(C)CC(C)CC)[C@H]2O)[C@@H](O)[C@H](C)Cc1ccccc1 (some centres unmarked) [Compound M]
  pIC50: > 7.00

## C=C(CC[C@]12O[C@H](C(=O)O)[C@@](O)(C(=O)O)[C@](C(=O)O)(O1)[C@H](OC(=O)/C=C/[C@@H](C)C[C@@H](C)CC)[C@H]2O)C(O)C(CO)Cc1ccccc1 (some centres unmarked) [Compound N]
  pIC50: > 7.00

## CC[C@H](C)C[C@H](C)/C=C/C(=O)O[C@@H]1[C@@H](O)[C@@]2(CC/C(C)=C/C(C)Cc3ccccc3)O[C@H](C(=O)O)[C@@](O)(C(=O)O)[C@]1(C(=O)O)O2 (some centres unmarked) [Compound A1]
  pIC50: > 7.00

## C=C(CC[C@]12O[C@H](C(=O)O)[C@@](O)(C(=O)O)[C@](C(=O)O)(O1)[C@H](OC(=O)/C=C/C(C)(O)CC(C)CC)[C@H]2O)[C@@H](O)[C@H](C)Cc1ccccc1 (some centres unmarked) [Compound C1]
  pIC50: > 7.00

## C=C(CC[C@]12O[C@H](C(=O)OC)[C@@](O)(C(=O)O)[C@](C(=O)O)(O1)[C@H](OC(=O)/C=C/[C@@H](C)C[C@@H](C)CC)[C@H]2O)[C@@H](O)[C@H](C)Cc1ccccc1 [Compound E, [1S-[1α(4R*,5S*),3α,4β,5α,6α(2E,4R*,6R*),7β]]1-(4-hydroxy-5-methyl-3-methylene-6-phenylhexyl)-4,6,7-trihydroxy-2,8-dioxabicyclo[3.2.1]octane-3,4,5-tricarboxylic acid, 6-(4,6-dimethyl-2-octenoate), 3-methyl ester]
  pIC50: > 7.00

## C=C(CC[C@@]12C[C@@H](OC(=O)/C=C/[C@@H](C)C[C@@H](C)CC)[C@@](C(=O)O)(O1)[C@](O)(C(=O)O)[C@@H](C(=O)O)O2)[C@@H](OC(C)=O)[C@H](C)Cc1ccccc1 [Compound O, [1S-[1α(4R*,5S*),3α,4β,5α,6α(2E,4R*,6R*)]]1-4-acetyloxy-5-methyl-3-methylene-6-phenylhexyl)-4,6-dihydroxy-2,8-dioxabicyclo[3.2.1]octane-3,4,5-tricarboxylic acid, 6-(4,6-dimethyl-2-octenoate)]
  pIC50: > 7.00

## C=C(CC[C@]12O[C@H](C(=O)O)[C@@](O)(C(=O)O)[C@](C(=O)O)(O1)[C@H](OC(=O)/C=C/C(C)(O)CC(C)CC)[C@H]2O)[C@@H](OC(C)=O)[C@H](C)Cc1ccccc1 (some centres unmarked) [Compound K]
  pIC50: > 7.00

## C=C(CC[C@]12O[C@H](C(=O)O)[C@@](O)(C(=O)O)[C@](C(=O)O)(O1)[C@H](OC(=O)CCC(C)CC(C)CC)[C@H]2O)[C@@H](OC(C)=O)[C@H](C)Cc1ccccc1 (some centres unmarked) [Compound U]
  pIC50: > 7.00

## C=C(CC[C@@]12O[C@H](C(=O)O)[C@@](O)(C(=O)O)[C@@](C(=O)O)(C[C@H]1O)O2)[C@@H](OC(C)=O)[C@H](C)Cc1ccccc1 [Compound V, [1S-[1α(4R*,5S*),3α,4β,5α,7β]]1-(4-acetyloxy-5-methyl-3-methylene-6-phenylhexyl)-4,7-dihydroxy-2,8-dioxabicyclo[3.2.1]octane-3,4,5-tricarboxylic acid]
  pIC50: > 7.00

## C=C(CC[C@]12O[C@H](C(=O)O)[C@@](O)(C(=O)O)[C@](C(=O)O)(O1)[C@H](OC(=O)CC(O)CCC(C)CC)[C@H]2O)[C@@H](OC(C)=O)[C@H](C)Cc1ccccc1 (some centres unmarked) [Compound L]
  pIC50: > 7.00

## C=C(CC[C@]12O[C@H](C(=O)O)[C@@](O)(C(=O)O)[C@](C(=O)O)(O1)[C@H](OC(=O)/C=C/[C@@H](C)C[C@@H](C)CC)[C@H]2O)[C@@H](O)[C@H](C)Cc1ccccc1 [Compound B, [1S-[1α(4R*,5S*),3α,4β,5α,6α(2E,4R*,6R*),7 β9]1-(4-hydroxy-5-methyl-3-methylene-6-phenylhexyl)-4,6,7-trihydroxy-2,8-dioxabicyclo[3.2.1]octane-3,4,5-tricarboxylic acid, 6-(4,6-dimethyl-2-octenoate)]
  pIC50: > 7.00

## C=C(CC[C@]12O[C@H](C(=O)O)[C@@](O)(C(=O)O)[C@](C(=O)O)(O1)[C@H](OC(=O)CC(O)C(C)CC(C)CC)[C@H]2O)[C@@H](OC(C)=O)[C@H](C)Cc1ccccc1 (some centres unmarked) [Compound I]
  pIC50: > 7.00

## C=C(CC[C@]12O[C@H](C(=O)O)[C@@](O)(C(=O)O)[C@](C(=O)O)(O1)[C@H](OC(=O)CC(O)CCC(C)CC)[C@H]2O)[C@@H](O)[C@H](C)Cc1ccccc1 (some centres unmarked) [Compound W]
  pIC50: > 7.00

## C=C(CC[C@]12O[C@H](C(=O)O)[C@@](O)(C(=O)O)[C@](C(=O)O)(O1)[C@H](OC(=O)/C=C/C(C)=C/C(C)CC)[C@H]2O)[C@@H](OC(C)=O)[C@H](C)Cc1ccccc1 (some centres unmarked) [Compound H]
  pIC50: > 7.00

## CC[C@H](C)C[C@H](C)/C=C/C(=O)O[C@@H]1[C@@H](O)[C@@]2(CC/C(=C\C(C)Cc3ccccc3)CNC(C)=O)O[C@H](C(=O)O)[C@@](O)(C(=O)O)[C@]1(C(=O)O)O2 (some centres unmarked) [Compound T]
  pIC50: > 7.00

## C=C(CC[C@]12O[C@H](C(=O)O)[C@@](O)(C(=O)O)[C@](C(=O)O)(O1)[C@H](OC(=O)/C=C/C(C)CCCC)[C@H]2O)[C@@H](OC(C)=O)[C@H](C)Cc1ccccc1 (some centres unmarked) [Compound G]
  pIC50: > 7.00
